≈ marks a conversion by molar mass, not a printed value.
Key:
[1] = tested on: S.aureus 174 C; test: MIC, in vitro activity vs. S.aureus 174 C; assay type: cell-based, Staphylococcus aureus; set-up: unit not given beside the values; conditions: Incubated at 37° C. overnight
Procedure: (§1) Table 2 summarizes the minimal inhibitory concentrations (MIC's) at which illustrative formula I compounds and cephalothin inhibit certain microorganisms associated with mastitis, such as Staphylococcus aureus 10092 (Newbould strain).
(§2) ^a Incubated at 37° C. overnight

[2] = tested on: Salmonella typhimurium; test: MIC against Gram-negative organisms: Salmonella typhimurium; assay type: cell-based; conditions: Incubated at 37° C. overnight; unit assumed
Procedure: (§3) The formula I compounds are also active against certain Gram-negative species.
as §2

[3] = tested on: S.aureus F1C; test: MIC, in vitro activity vs. S.aureus F1C; assay type: cell-based, Staphylococcus aureus; set-up: unit not given beside the values; conditions: Incubated at 37° C. overnight
Procedure: as §1, §2

[4] = tested on: Streptococcus uberis 166 L; test: MIC, in vitro activity vs. Streptococcus uberis 166 L; assay type: cell-based; set-up: unit not given beside the values; conditions: Incubated at 37° C. overnight
Procedure: as §1, §2

[5] = tested on: Pasteurella haemolytica 114F (bovine); test: MIC against Gram-negative organisms: Pasteurella haemolytica 114F (bovine); assay type: cell-based; conditions: Incubated at 37° C. overnight; unit assumed
Procedure: as §3, §2

[6] = tested on: S.aureus ATCC 29213; test: MIC, in vitro activity vs. S.aureus ATCC 29213; assay type: cell-based, Staphylococcus aureus; set-up: unit not given beside the values; conditions: Incubated at 37° C. overnight
Procedure: as §1, §2

[7] = tested on: Streptococcus agalactiae; test: MIC, in vitro activity vs. Streptococcus agalactiae; assay type: cell-based; set-up: unit not given here; conditions: Incubated at 37° C. overnight
Procedure: as §1, §2

[8] = tested on: Streptococcus uberis 150 L; test: MIC, in vitro activity vs. Streptococcus uberis 150 L; assay type: cell-based; set-up: unit not given beside the values; conditions: Incubated at 37° C. overnight
Procedure: as §1, §2

[9] = tested on: pasteurella multocida 10,102 (bovine); test: MIC against Gram-negative organisms: pasteurella multocida 10,102 (bovine); assay type: cell-based; conditions: Incubated at 37° C. overnight; unit assumed
Procedure: as §3, §2

[10] = tested on: Pasteurella haemolytica 128K (bovine); test: MIC against Gram-negative organisms: Pasteurella haemolytica 128K (bovine); assay type: cell-based; conditions: Incubated at 37° C. overnight; unit assumed
Procedure: as §3, §2

[11] = tested on: pasteurella multocida 108E (bovine); test: MIC against Gram-negative organisms: pasteurella multocida 108E (bovine); assay type: cell-based; conditions: Incubated at 37° C. overnight; unit assumed
Procedure: as §3, §2

[12] = tested on: Escherichia coli; test: MIC against Gram-negative organisms: Escherichia coli; assay type: cell-based; conditions: Incubated at 37° C. overnight; unit assumed
Procedure: as §3, §2

[13] = tested on: pasteurella multocida 1051 (swine); test: MIC against Gram-negative organisms: pasteurella multocida 1051 (swine); assay type: cell-based; conditions: Incubated at 37° C. overnight; unit assumed
Procedure: as §3, §2

[14] = tested on: Pasteurella haemolytica 129R (bovine); test: MIC against Gram-negative organisms: Pasteurella haemolytica 129R (bovine); assay type: cell-based; conditions: Incubated at 37° C. overnight; unit assumed
Procedure: as §3, §2

[15] = tested on: pasteurella multocida ATCC 12945; test: MIC against Gram-negative organisms: pasteurella multocida ATCC 12945; assay type: cell-based; conditions: Incubated at 37° C. overnight; unit assumed
Procedure: as §3, §2

[16] = tested on: Staphylococcus aureus 10092 (Newbould); test: Efficacy in induced Staphylococcus aureus mastitis model in lactating goats; assay type: in vivo; conditions: 8 halves per compound, 2 consecutive milkings 12 hours apart, approximately 25 mg/5 mL dose in peanut oil, from 36 hours post-challenge
From the text: Sixteen lactating goats were selected based on the absence of Staphylococcus aureus in pre-challenge milk cultures. Maintenance ration was provided to the animals throughout the study. The goats were milked twice each day using a portable goat milker.
Milk samples were collected during the morning milking. One day prior to challenge, milk culture samples were collected from each half of the test animals to determine if there was a pre-existing infection. Additionally, a sample was collected from each half for Somatic Cell Count (SCC) determination. A milk culture sample and a sample for SCC were collected from each half 24 hours post-challenge and on Days +4 to +6, +8, +11, +13, and +15.
Udder scoring was performed during each milking wing table:
General health observations and body temperature were recorded once a day following milking during the challenge and treatment periods.
Milk samples were submitted for analysis for SCC using an electronic somatic cell counting system.
Milk culture samples were assayed for bacterial culture by plating 1.0 mL and 0.1 mL of the milk sample directly onto duplicate blood agar plates. Additionally, dilutions 10^-1 of the milk sample were plated. Plates were incubated overnight at 37° C.
Staphylococcus aureus 10092 (Newbould) was used as the challenge strain. The challenge culture was grown in Tryptic Soy Broth (TSB) from a lyovial stock overnight (16 hours) at 37° C. TSB (100 mL) was inoculated with 1 mL of the overnight culture and incubated at 37° C. with shaking for 4 hours. The culture was centrifuged at 9000 rpm for 10 minutes at 10° C.; supernatant was removed and the pellet was resuspended in phosphate buffered saline (PBS). Optimum O.D. reading at 650 nm was approximately 0.035. A 10-fold dilution series was prepared with saline to determine the CFU/mL, plating 10^-5, 10^-6, and 10^-7 dilutions onto duplicate blood agar plates. The 10^-7 dilution (approximately 10 CFU/mL) was used for the challenge material, yielding a challenge of 50 CFU/half with a 5-mL infusion.
Sixteen goats were used for the trial. During a one day pre-challenge period, milk samples were collected and temperatures were taken during the morning milking. Milk/udder evaluations were documented during the morning and afternoon milkings.
Staphylococcus aureus 10092 was infused into both halves in each of the goats. The goats were challenged following the morning milking and milked in the afternoon on the day of challenge. The challenge inoculum volume was 5 mL/half containing approximately 50 CFU S. aureus.
For the 24 hr post-challenge period milk samples were collected during the morning milking, and milk/udder evaluations made during the morning and afternoon milking.
Treatment was started at 36 hours post-challenge. Milk samples were collected for culture and SCC 24 hours post-challenge, prior to the morning milking, and the treatment period started following the afternoon milking.
Eight halves (4 goats) each were treated for 2 consecutive milkings 12 hours apart, following milking. Each designated compound was formulated in peanut oil with […] of compound per 5 g of formulation to give approximately 25 mg/5 mL dose.
Following treatment, the goats were milked and observed for 15 days. Milk samples were collected on Days +4 to +6, +8, +11, +13, and +15 to determine if the infection had cleared.
Establishment of mastitis was determined by bacterial culturing, severity of udder scoring, somatic cell count results, and body temperature.
On Days +2 to +6, milk samples were collected for a calorimetric assay to determine whether the antibiotic was still present in the milk.

[17] = tested on: Staphylococcus aureus 10092 (Newbould strain); test: MIC, in vitro activity vs. S.aureus 10092; assay type: cell-based; set-up: unit not given beside the values; conditions: Incubated at 37° C. overnight
Procedure: as §1, §2

[18] = tested on: Strepcococcus dysgalactiae; test: MIC, in vitro activity vs. Streptococcus dysgalactiae; assay type: cell-based; set-up: unit not given here; conditions: Incubated at 37° C. overnight
Procedure: as §1, §2

Row | SMILES | MIC vs. S.aureus 174 C [1] | MIC, Salmonella typhimurium [2] | MIC vs. S.aureus F1C [3] | MIC vs. Streptococcus uberis 166 L [4] | MIC, Pasteurella haemolytica 114F (bovine) [5] | MIC vs. S.aureus ATCC 29213 [6] | MIC vs. Streptococcus agalactiae [7] | MIC vs. Streptococcus uberis 150 L [8] | MIC, pasteurella multocida 10,102 (bovine) [9] | MIC, Pasteurella haemolytica 128K (bovine) [10] | MIC, pasteurella multocida 108E (bovine) [11] | MIC, Escherichia coli [12] | MIC, pasteurella multocida 1051 (swine) [13] | MIC, Pasteurella haemolytica 129R (bovine) [14] | MIC, pasteurella multocida ATCC 12945 [15] | % Bacteriologic Cures [16] | MIC vs. S.aureus 10092 [17] | MIC vs. Strepcococcus dysgalactiae [18]
1 | CC(=O)OCC1=C(C(=O)O)N2C(=O)[C@@H](NC(=O)Cc3cccs3)[C@H]2SC1 [Cephalothin, reference compound] | 0.25 | 4 µg/mL (≈ 10.1 µM) | 0.25 | 0.0625 | 1 µg/mL (≈ 2.52 µM) | 0.25 | 0.125 | 0.125 | 0.5 µg/mL (≈ 1.26 µM) | 0.5 µg/mL (≈ 1.26 µM) | 0.5 µg/mL (≈ 1.26 µM) | 8 µg/mL (≈ 20.2 µM) | 0.25 µg/mL (≈ 0.631 µM) | 1 µg/mL (≈ 2.52 µM) | 0.25 µg/mL (≈ 0.631 µM) | – | – | –
2 | Cc1nnc(SCC2=C(C(=O)O)N3C(=O)[C@@H](NC(=O)CSc4ccc(C(F)(F)F)cc4)[C@H]3SC2)s1 [Compound 2] | 0.125 | – | 0.25 | 0.125 | – | 0.25 | 0.125 | 0.125 | – | – | – | – | – | – | – | 83% | 0.125 | 0.0625
3 | Cc1nnc(SCC2=C(C(=O)O)N3C(=O)[C@@H](NC(=O)CSc4c(F)c(F)c(F)c(F)c4F)[C@H]3SC2)s1 [Compound 3] | 0.0625 | – | 0.125 | 0.0156 | – | 0.125 | 0.0156 | – | – | – | – | – | – | – | – | 50% | 0.625 | 0.0156
4 | Cc1nnc(SCC2=C(C(=O)O)N3C(=O)[C@@H](NC(=O)CSc4ccc(S(=O)(=O)C(F)(F)F)cc4)[C@H]3SC2)s1 [Compound 4] | 0.0312 | – | 0.125 | – | – | 0.0625 | 0.0156 | – | – | – | – | – | – | – | – | 71% | 0.0312 | –
5 | Cc1nnc(SCC2=C(C(=O)O)N3C(=O)[C@@H](NC(=O)CSc4c(F)c(F)c(C(F)(F)F)c(F)c4F)[C@H]3SC2)s1 [Compound 5] | 0.0625 | – | 0.125 | – | – | 0.0625 | 0.0156 | 0.0156 | – | – | – | – | – | – | – | 33% | 0.0625 | 0.0625

— patent US6329363A, “Cephalosporin antibiotics” (Eli Lilly and Company, priority 1998, dated 2001)
